Data: patent US20020048549A1, “Radioactive transition metal nitride heterocomplex” (priority 1996, published 2002)

Test: Retention on Sep-Pak C18 reversed phase column (lipophilicity)
Type: physicochemical
Description: Cation exchange resin: Sep-Pak CM (COONa), illpore, anion exchange resin: Sep-Pak QMA (CONH(CH2)3N(CH3)3^+Cl), Millpore, reversed phase column: Sep-Pak C18, Millpore. The complex was retained in an amount of about 95% in the cation exchange resin, about 60% in the anion exchange resin, or 99.5% in the reversed phase column.

## COCCC[P+]1(CCCOC)CCN(CCOC)CC[P+](CCCOC)(CCCOC)[99Tc-2]12(#[N])[NH]C(C(=O)N(C)CCCN1c3ccccc3CCc3ccccc31)C[S]2 (centres unmarked) [^99mTcN-DESI]
  amount retained in the reversed phase column: 99.5%
  lipophilicity suggested by retention in reversed phase column: high lipophilic
